Like-named read-outs stand apart in the source and are kept apart here.
Experiments:
[1] = system: SH-SY5Y cells
Excerpt: The PKIS2 Library was supplied by The Structural Genomics Consortium at the University of North Carolina at Chapel Hill.

[2] = system: SH-SY5Y cells; test: Nuclear count from microscopy images (cellular growth and toxicity)
[3] = system: endogenous TFE3; test: TFE3 nuclear translocation, immunocytochemistry high-content imaging; type: cell-based
[4] = system: endogenous TFEB; test: TFEB nuclear translocation, immunocytochemistry high-content imaging; type: cell-based
[5] = system: SH-SY5Y cells; test: AK (adenylate kinase) release ToxiLight cytotoxicity assay
Description: Total cell lysis with 5 µL 5% Triton-X 100 (Sigma-Aldrich, T8787) is used as a positive control for the assay and toxicity is expressed as a percentage of luminescence under DMSO conditions.

[6] = PKIS2 primary screen, DQ Red BSA intensity
[7] = PKIS2 primary screen, DQ Red BSA spot count
[8] = PKIS2 primary screening, DQ Red BSA intensity
[9] = PKIS2 primary screening, DQ Red BSA spot count

SMILES	DQ Intensity ([1]; PKIS2 primary screening)	DQ Spot ([1]; PKIS2 primary screening)	Nuclear Count ([2]; PKIS2 primary screening)	TFE3 % ([3]; PKIS2 primary screening) [%]	TFEB % ([4]; PKIS2 primary screening) [%]	AK ([5]; PKIS2 primary screening)	DQ Intensity [1, 6]	DQ Spot [1, 7]	Nuclear Count ([2]; PKIS2 primary screen)	TFE3 % ([3]; PKIS2 primary screen) [%]	TFEB % ([4]; PKIS2 primary screen) [%]	AK ([5]; PKIS2 primary screen)	DQ Intensity [1, 8]	DQ Spot [1, 9]
CCOC(=O)N1CCC(n2cnc(-c3ccc(F)cc3)c2-c2ccnc(N)n2)CC1 [UNC10225132A]	90.15	96.37	129.88	8.29	10.30	115.58	–	–	–	–	–	–	–	–
O=c1cc(N2CCOCC2)nc2n(Cc3cccc(Cl)c3Cl)c3ccccc3n12 [UNC10225136A]	100.81	121.13	90.29	23.04	3.50	86.64	–	–	–	–	–	–	–	–
FC(F)(F)c1ccc(-c2nn3ncccc3c2-c2ccnc(Nc3cccc(C(F)(F)F)c3)n2)cc1 [UNC10225138A]	102.80	109.82	92.79	11.01	4.73	86.01	–	–	–	–	–	–	–	–
CC(C)c1nc(-c2cccc(NS(=O)(=O)c3c(F)cccc3F)c2)c(-c2ccnc(Nc3ccc(N4CCOCC4)nc3)n2)s1.Cl [UNC10225142A]	106.42	109.80	103.74	11.69	18.86	81.90	–	–	–	–	–	–	–	–
Nc1nc(N)c2nc(-c3ccccc3)[nH]c2n1 [UNC10225149A]	89.50	98.14	98.36	9.26	6.49	120.42	–	–	–	–	–	–	–	–
Cc1ccc(NC(=O)c2ccc(Cl)c(Cl)c2)cc1-c1ccc(C(=O)Nc2ccncc2)cc1 [UNC10225151A]	92.58	82.55	117.17	10.75	6.14	125.83	–	–	–	–	–	–	–	–
COc1cc2ncn(-c3cc(OCc4sccc4Cl)c(C(N)=O)s3)c2cc1OC [UNC10225153A]	186.81	134.42	49.58	30.18	9.72	134.16	–	–	–	–	–	–	–	–
CCn1c(-c2ccccn2)nc2cnccc21 [UNC10225156A]	124.07	112.23	94.90	11.71	4.22	96.85	–	–	–	–	–	–	–	–
O=c1[nH]cc(-c2ccc(N3CCOCC3)cc2)c2sc(-c3cn[nH]c3)cc12 [UNC10225158A]	–	–	–	–	–	–	68.86	89.34	78.86	10.30	7.60	90.80	–	–
Fc1ccc(-c2nc3n(c2-c2ccncc2)CCS3)cc1 [UNC10225163A]	–	–	90.62	5.95	3.29	64.81	–	–	–	–	–	–	100.39	119.65
Cn1cc(-c2ccc3c(c2)CCN3C(=O)Cc2cccc(C(F)(F)F)c2)c2c(N)ncnc21 [UNC10225165A]	124.78	91.55	103.31	14.20	6.03	93.68	–	–	–	–	–	–	–	–
O=c1[nH]cc(-c2ccc(O)cc2)c2sc(-c3ccncc3)cc12 [UNC10225166A]	–	–	–	–	–	–	80.95	75.27	145.07	6.08	3.69	95.26	–	–
c1ccc(-c2cc(-c3c[nH]nc3-c3ccccn3)ccn2)cc1 [UNC10225169A]	–	–	139.75	6.57	2.50	72.24	–	–	–	–	–	–	83.52	97.79
Cn1cc(-c2ccc3c(c2)CCN3C(=O)Cc2ccccc2Cl)c2c(N)ncnc21 [UNC10225172A]	88.08	66.39	63.66	8.56	8.22	106.54	–	–	–	–	–	–	–	–
Nc1nccc(-c2c(-c3ccc(F)cc3)ncn2C2CCN(CC(F)(F)F)CC2)n1 [UNC10225173A]	90.34	99.50	107.53	11.80	11.13	117.50	–	–	–	–	–	–	–	–
O=C(Nc1cccc(-c2nn3ncccc3c2-c2ccnc(Nc3cccc(C(F)(F)F)c3)n2)c1)c1c(F)cccc1F [UNC10225174A]	102.81	113.18	93.11	11.86	2.89	107.72	–	–	–	–	–	–	–	–
Cc1nn2c(=O)cc(N3CCOCC3)nc2n1Cc1cccc(Cl)c1Cl [UNC10225178A]	66.02	117.74	93.42	28.29	7.97	116.91	–	–	–	–	–	–	–	–
FC(F)(F)c1ccccc1-c1cc(-c2c[nH]nc2-c2ccccn2)ccn1 [UNC10225184A]	–	–	131.35	4.50	5.60	124.66	–	–	–	–	–	–	88.51	92.76

Reference: paper PMC9851200, “Multiparameter phenotypic screening for endogenous TFEB and TFE3 translocation identifies novel chemical series modulating lysosome function” (Autophagy, 2022)
